Source: patent US11883389B2, “Formulations of 2-(4-chlorophenyl)-N-((2-(2,6- dioxopiperidin-3-yl)-1-oxoisoindolin-5-yl)methyl)-2,2-difluoroacetamide” (Celgene Corporation, priority 2016, dated 2024)

What was measured:
physchem [1] = assay type: physicochemical; conditions: organic solvent or mixture
Excerpt: Due to the poor water solubility of Compound 1, Form C, a cosolvent system was required to solubilize the drug compound in a solution prior to lyophilization. Several solubilizing agents and solvents that were considered in this example include hydroxypropyl-beta-cyclodextrin (HPβCD), Sulfobutylether-β-cyclodextrin sodium salt (SBEβCD; Captisol®), Tert-butyl alcohol (TBA), and dimethylacetamide (DMA).
When the SBEβCD concentration increased from 30% to 40%, the enhancement in drug solubility was very limited.

[2] = hygroscopicity / dynamic vapor sorption analysis; assay type: physicochemical; conditions: for water uptake (DVS): RH increased from about 0% to about 90% RH
Procedure: In certain embodiments, Form A is characterized by dynamic vapor sorption analysis. […] In certain embodiments, Form A comprises less than 0.1% water as determined in a coulometric Karl Fischer (KF) titrator equipped with an oven sample processor set at 225° C.
In certain embodiments, Form B is characterized by dynamic vapor sorption analysis. […] In certain embodiments, Form B comprises less than 0.1% water as determined in a coulometric Karl Fischer (KF) titrator equipped with an oven sample processor set at 225° C.
In certain embodiments, Form C is characterized by dynamic vapor sorption analysis. […] In certain embodiments, Form C comprises less than 0.1% water as determined in a coulometric Karl Fischer (KF) titrator equipped with an oven sample processor set at 225° C.

physchem [3] = conditions: aqueous buffer
[4] = pH 5

SMILES | solubility (physchem [1]) [mg/mL] | water uptake (DVS) [2] | Hygroscopicity [2] | solubility (physchem [3]) [mg/mL] | Solution Stability [4]
O=C1CCC(N2Cc3cc(CNC(=O)C(F)(F)c4ccc(Cl)cc4)ccc3C2=O)C(=O)N1 (single isomer, unassigned) [Form C, 2-(4-Chlorophenyl)-N-((2-(2,6-dioxopiperidin-3-yl)-1-oxoisoindolin-5-yl)methyl)-2,2-difluoroacetamide] | < 166 | about 0.6 % w/w | – | – | –
O=C1CCC(N2Cc3cc(CNC(=O)C(F)(F)c4ccc(Cl)cc4)ccc3C2=O)C(=O)N1 (single isomer, unassigned) [Form A, 2-(4-Chlorophenyl)-N-((2-(2,6-dioxopiperidin-3-yl)-1-oxoisoindolin-5-yl)methyl)-2,2-difluoroacetamide] | – | about 1.2 % w/w | – | – | –
O=C1CCC(N2Cc3cc(CNC(=O)C(F)(F)c4ccc(Cl)cc4)ccc3C2=O)C(=O)N1 (stereo not shown) [Compound 1, 2-(4-chlorophenyl)-N-((2-(2,6-dioxopiperidin-3-yl)-1-oxoisoindolin-5-yl)methyl)-2,2-difluoroacetamide] | – | – | Not hygroscopic | ≤ 0.001 | DS is not stable in solution at pH of 5.0 or above.
O=C1CCC(N2Cc3cc(CNC(=O)C(F)(F)c4ccc(Cl)cc4)ccc3C2=O)C(=O)N1 (stereo not shown) [Form B, 2-(4-chlorophenyl)-N-((2-(2,6-dioxopiperidin-3-yl)-1-oxoisoindolin-5-yl)methyl)-2,2-difluoroacetamide] | – | about 1.4 % w/w | – | – | –
